Measured values taken from US8338565B2, “Macrocyclic compounds for inhibition of tumor necrosis factor alpha” (Ensemble Therapeutics Corporation, priority 2008, dated 2012).
Numbered stars: 1 amine (or outer) side, 2 acyl side, 3 side chain; on linkers, the order of the positions; unused ones are H or OH. Bridge positions count the residues as written; N and C are the ends. Square brackets hold non-standard residues; d marks the D form. Peptide text beside a SMILES is read from it. Tartaroyl(2R,3R-(OAc)2) = CC(=O)O[C@@H](C(=O)[*:1])[C@@H](OC(C)=O)C(=O)[*:2]; Phe(3-CF3) = N[C@@H](Cc1cccc(C(F)(F)F)c1)C(=O)O; Phe(4-COOH) = N[C@@H](Cc1ccc(C(=O)O)cc1)C(=O)O; Bip = N[C@@H](Cc1ccc(-c2ccccc2)cc1)C(=O)O; dBip = N[C@H](Cc1ccc(-c2ccccc2)cc1)C(=O)O; dPhe(4-NH2) = Nc1ccc(C[C@@H](N)C(=O)O)cc1; Phe(4-NH2) = Nc1ccc(C[C@H](N)C(=O)O)cc1; dPhe(2-Me) = Cc1ccccc1C[C@@H](N)C(=O)O; d(hPhe) = N[C@H](CCc1ccccc1)C(=O)O; hPhe = N[C@@H](CCc1ccccc1)C(=O)O; 3Pal = N[C@@H](Cc1cccnc1)C(=O)O; Malonyl = O=C(CC(=O)[*:2])[*:1]; 2Thi = N[C@@H](Cc1cccs1)C(=O)O; d2Thi = N[C@H](Cc1cccs1)C(=O)O; Suc = O=C(CCC(=O)[*:2])[*:1]; βAla = NCCC(=O)O

The compounds below were run against T1, TNFα / TNFα receptor (TNFα R1/Fc) (Homo sapiens, UniProt P01375) (assay: Inhibition of binding of TNFα to the TNFα receptor (plate ELISA competition)). Conditions: Table 2; read-out: Activity (IC50, inhibition of TNFα binding to TNFα R1/Fc).
T1 construct: purchased R&D Systems
T1 sequence (P01375 77-233 limits assumed, species assumed): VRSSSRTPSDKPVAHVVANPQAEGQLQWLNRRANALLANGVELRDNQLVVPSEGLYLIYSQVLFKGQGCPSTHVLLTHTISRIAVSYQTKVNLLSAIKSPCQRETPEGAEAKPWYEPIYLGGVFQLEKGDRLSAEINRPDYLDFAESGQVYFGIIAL
Procedure, shortened: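 Plates were coated with TNFα at 15 nM. Test compound and 8.33 nM receptor-Fc (PBST, 2% DMSO) were first mixed in solution for 30 min at room temperature, then transferred to the plates for another 30 min. Competition was read by absorbance at 450 nm after HRP anti-human IgG Fc detection with TMB.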

First: C[C@@H](NC(=O)[C@@H]1Cc2ccc(cc2)NC(=O)CCC(=O)N[C@H](Cc2cccs2)C(=O)N[C@@H](Cc2ccc(-c3ccccc3)cc2)C(=O)N[C@H](CCc2ccccc2)C(=O)N1)C(=O)O [Compound 446] ([d2Thi][Bip][d(hPhe)][Phe(4-NH2)][dA]-OH; linker N-4 via Suc)
Second: O=C1CCC(=O)N[C@H](Cc2cccs2)C(=O)N[C@@H](Cc2ccc(-c3ccccc3)cc2)C(=O)N[C@H](Cc2ccccc2)C(=O)N[C@H](C(=O)N[C@@H](CO)C(=O)O)Cc2ccc(cc2)N1 [Compound 22] ([d2Thi][Bip][dF][Phe(4-NH2)]S-OH; linker N-4 via Suc)
The IC50 of the first is higher: > 100 µM for the first, 30 to 100 µM for the second. The second is the more potent here.

First: CN(CCS(=O)(=O)O)C(=O)[C@@H]1Cc2ccc(cc2)OCC(=O)N[C@@H](Cc2cccs2)C(=O)N[C@H](Cc2ccc(-c3ccccc3)cc2)C(=O)N[C@@H](CCc2ccccc2)C(=O)N1 [Compound 605]
Second: O=C1COc2ccc(cc2)C[C@@H](C(=O)O)NC(=O)[C@H](CCc2ccccc2)NC(=O)[C@H](Cc2ccc(-c3ccccc3)cc2)NC(=O)[C@H](Cc2cccs2)N1 [Compound 254]
The IC50 of the first is lower: < 10 µM for the first, 10 to 30 µM for the second. The first is the more potent here.

O=C(O)CCNC(=O)[C@@H]1Cc2ccc(cc2)OCC(=O)N[C@@H](Cc2cccs2)C(=O)N[C@H](Cc2ccc(-c3ccccc3)cc2)C(=O)N[C@@H](Cc2ccc(O)cc2)C(=O)N1 [Compound 564] and O=C1COc2ccc(cc2)C[C@@H](C(=O)O)NC(=O)[C@H](Cc2cccs2)NC(=O)[C@@H](Cc2ccc(-c3ccccc3)cc2)NC(=O)[C@H](Cc2ccncc2)N1 [Compound 652] cannot be ordered by IC50: < 10 µM for the first, < 10 µM for the second.

Compared with O=C1CCC(=O)N[C@H](CCc2ccccc2)C(=O)N[C@@H](Cc2ccc(-c3ccccc3)cc2)C(=O)N[C@H](Cc2ccccc2)C(=O)N[C@H](C(=O)N[C@@H](Cc2cccnc2)C(=O)O)Cc2ccc(cc2)N1 [Compound 403] ([d(hPhe)][Bip][dF][Phe(4-NH2)][3Pal]-OH; linker N-4 via Suc), O=C1CCC(=O)N[C@H](Cc2ccccc2)C(=O)N[C@@H](Cc2ccc(-c3ccccc3)cc2)C(=O)N[C@H](Cc2ccccc2)C(=O)N[C@H](C(=O)O)Cc2ccc(cc2)N1 [Compound 128] ([dF][Bip][dF][Phe(4-NH2)]-OH; linker N-4 via Suc) is lower in IC50: > 100 µM for the first, 30 to 100 µM for the second. The second is the more potent here.

First: CC(=O)O[C@H]1C(=O)Nc2ccc(cc2)C[C@H](C(=O)N[C@@H](Cc2ccccc2)C(=O)O)NC(=O)[C@H](CCc2ccccc2)NC(=O)[C@@H](Cc2ccc(-c3ccccc3)cc2)NC(=O)[C@H](Cc2cccs2)NC(=O)[C@@H]1OC(C)=O [Compound 411] ([2Thi][dBip][hPhe][dPhe(4-NH2)]F-OH; linker N-4 via Tartaroyl(2R,3R-(OAc)2))
Second: O=C1COc2ccc(cc2)C[C@@H](C(=O)N[C@@H](Cc2ccccc2)C(=O)O)NC(=O)[C@H](Cc2ccccc2)NC(=O)[C@@H](Cc2ccc(-c3ccccc3)cc2)NC(=O)[C@H](Cc2cccs2)N1 [Compound 230]
The IC50 of the first is higher: > 100 µM for the first, 10 to 30 µM for the second.

Compared with O=C1CCC(=O)N[C@H](Cc2cccs2)C(=O)N[C@@H](Cc2ccc(-c3ccccc3)cc2)C(=O)N[C@H](Cc2ccccc2)C(=O)Nc2ccc(cc2)C[C@@H](C(=O)O)N1 [Compound 549], O=C1CC(=O)N[C@H](Cc2cccs2)C(=O)N[C@@H](Cc2ccc(-c3ccccc3)cc2)C(=O)N[C@H](Cc2ccccc2)C(=O)N[C@H](C(=O)O)Cc2ccc(cc2)N1 [Compound 5] ([d2Thi][Bip][dF][Phe(4-NH2)]-OH; linker N-4 via Malonyl) is lower in IC50: > 100 µM for the first, 30 to 100 µM for the second. The second is the more potent here.

O=C1COc2ccc(cc2)C[C@@H](C(=O)O)NC(=O)[C@H](Cc2ccc(-c3ccccc3)cc2)NC(=O)[C@@H](Cc2ccc(-c3ccccc3)cc2)NC(=O)[C@H](CCc2ccccc2)N1 [Compound 725] and O=C1COc2ccc(cc2)C[C@@H](C(=O)O)NC(=O)[C@H](CCc2ccccc2)NC(=O)[C@@H](Cc2ccc(-c3ccccc3)cc2)NC(=O)[C@H](Cc2ccc(O)cc2)N1 [Compound 686] cannot be ordered by IC50: < 10 µM for the first, < 10 µM for the second.

Compared with O=C1COc2ccc(cc2)C[C@@H](C(=O)O)NC(=O)[C@H](CCc2ccccc2)NC(=O)[C@@H](Cc2ccc(-c3ccc(F)cc3)cc2)NC(=O)[C@H](Cc2cccs2)N1 [Compound 655], CC(C)[C@H](NC(=O)[C@@H]1Cc2ccc(cc2)OCC(=O)N[C@@H](Cc2cccs2)C(=O)N[C@H](Cc2ccc(-c3ccccc3)cc2)C(=O)N[C@@H](CCc2ccccc2)C(=O)N1)C(=O)O [Compound 487] is higher in IC50: < 10 µM for the first, 10 to 30 µM for the second. The first is the more potent here.

Compared with O=C1CCC(=O)N[C@H](CCc2ccccc2)C(=O)N[C@@H](Cc2ccc(-c3cc(F)cc(F)c3)cc2)C(=O)N[C@H](Cc2ccccc2)C(=O)N[C@H](C(=O)O)Cc2ccc(cc2)N1 [Compound 182], O=C1CCNC(=O)c2ccc(cc2)C[C@@H](C(=O)O)NC(=O)[C@H](Cc2ccccc2)NC(=O)[C@H](Cc2ccc(-c3ccccc3)cc2)NC(=O)[C@H](CCc2ccccc2)N1 [Compound 463] ([βAla][hPhe][Bip]F[Phe(4-COOH)]-OH; lactam N-5) is higher in IC50: 30 to 100 µM for the first, > 100 µM for the second.

Cc1ccccc1C[C@H]1NC(=O)[C@H](Cc2ccc(-c3ccccc3)cc2)NC(=O)[C@@H](Cc2cccs2)NC(=O)CCC(=O)Nc2ccc(cc2)C[C@@H](C(=O)O)NC1=O [Compound 80] ([d2Thi][Bip][dPhe(2-Me)][Phe(4-NH2)]-OH; linker N-4 via Suc) and C[C@H]1NC(=O)[C@H](Cc2ccc(-c3ccccc3)cc2)NC(=O)[C@@H](Cc2cccs2)NC(=O)CCC(=O)Nc2ccc(cc2)C[C@@H](C(=O)O)NC1=O [Compound 44] ([d2Thi][Bip][dA][Phe(4-NH2)]-OH; linker N-4 via Suc) cannot be ordered by IC50: > 100 µM for the first, > 100 µM for the second.

O=C1COc2ccc(cc2)C[C@@H](C(=O)N[C@H](CCc2ccccc2)C(=O)O)NC(=O)[C@H](Cc2ccccc2F)NC(=O)[C@@H](Cc2ccc(-c3ccccc3)cc2)NC(=O)[C@H](Cc2c[nH]c3ccccc23)N1 [Compound 741] and O=C(O)CCCNC(=O)[C@H]1Cc2ccc(cc2)OCC(=O)N[C@@H](Cc2c[nH]c3ccccc23)C(=O)N[C@H](Cc2ccc(-c3ccccc3)cc2)C(=O)N[C@@H](Cc2c[nH]c3ccccc23)C(=O)N1 [Compound 716] cannot be ordered by IC50: < 10 µM for the first, < 10 µM for the second.

O=C1CCNC(=O)c2ccc(cc2)C[C@@H](C(=O)O)NC(=O)[C@H](Cc2ccccc2)NC(=O)[C@@H](Cc2ccc(-c3ccccc3)cc2)NC(=O)[C@H](CCc2ccccc2)N1 [Compound 465] ([βAla][hPhe][dBip]F[Phe(4-COOH)]-OH; lactam N-5) and O=C1COc2ccc(cc2)C[C@@H](C(=O)N[C@H](Cc2ccccc2)C(=O)O)NC(=O)[C@H](CCc2ccccc2)NC(=O)[C@@H](Cc2ccc(-c3ccccc3)cc2)NC(=O)[C@H](Cc2ccc(-c3ccccc3)cc2)N1 [Compound 573] cannot be ordered by IC50: < 10 µM for the first, < 10 µM for the second.

O=C1CCC(=O)N[C@H](Cc2cccs2)C(=O)N[C@@H](Cc2cccc(C(F)(F)F)c2)C(=O)N[C@H](Cc2ccccc2)C(=O)N[C@H](C(=O)O)Cc2ccc(cc2)N1 [Compound 208] ([d2Thi][Phe(3-CF3)][dF][Phe(4-NH2)]-OH; linker N-4 via Suc) and O=C(O)C[C@H](NC(=O)[C@@H]1Cc2ccc(cc2)NC(=O)CCC(=O)N[C@H](Cc2cccs2)C(=O)N[C@@H](Cc2ccc(-c3ccccc3)cc2)C(=O)N[C@H](Cc2ccccc2)C(=O)N1)C(=O)O [Compound 27] ([d2Thi][Bip][dF][Phe(4-NH2)]D-OH; linker N-4 via Suc) cannot be ordered by IC50: > 100 µM for the first, > 100 µM for the second.

In the case of NCCCC[C@H](NC(=O)[C@@H]1Cc2ccc(cc2)NC(=O)[C@H](O)[C@@H](O)C(=O)N[C@H](Cc2cccs2)C(=O)N[C@@H](Cc2ccc(-c3ccccc3)cc2)C(=O)N[C@H](Cc2ccccc2)C(=O)N1)C(=O)O [Compound 360], the IC50 is reported as > 100 µM.
